The record followed here is US20180057507A1, “INHIBITORS OF DUAL LEUCINE ZIPPER (DLK) KINASE FOR THE TREATMENT OF DISEASE” (Board of Regents, The University of Texas System, priority 2016, published 2018).

For the assay, the target named is T1, human DLK (Homo sapiens, UniProt Q12852).
T1 sequence (Q12852 1-859): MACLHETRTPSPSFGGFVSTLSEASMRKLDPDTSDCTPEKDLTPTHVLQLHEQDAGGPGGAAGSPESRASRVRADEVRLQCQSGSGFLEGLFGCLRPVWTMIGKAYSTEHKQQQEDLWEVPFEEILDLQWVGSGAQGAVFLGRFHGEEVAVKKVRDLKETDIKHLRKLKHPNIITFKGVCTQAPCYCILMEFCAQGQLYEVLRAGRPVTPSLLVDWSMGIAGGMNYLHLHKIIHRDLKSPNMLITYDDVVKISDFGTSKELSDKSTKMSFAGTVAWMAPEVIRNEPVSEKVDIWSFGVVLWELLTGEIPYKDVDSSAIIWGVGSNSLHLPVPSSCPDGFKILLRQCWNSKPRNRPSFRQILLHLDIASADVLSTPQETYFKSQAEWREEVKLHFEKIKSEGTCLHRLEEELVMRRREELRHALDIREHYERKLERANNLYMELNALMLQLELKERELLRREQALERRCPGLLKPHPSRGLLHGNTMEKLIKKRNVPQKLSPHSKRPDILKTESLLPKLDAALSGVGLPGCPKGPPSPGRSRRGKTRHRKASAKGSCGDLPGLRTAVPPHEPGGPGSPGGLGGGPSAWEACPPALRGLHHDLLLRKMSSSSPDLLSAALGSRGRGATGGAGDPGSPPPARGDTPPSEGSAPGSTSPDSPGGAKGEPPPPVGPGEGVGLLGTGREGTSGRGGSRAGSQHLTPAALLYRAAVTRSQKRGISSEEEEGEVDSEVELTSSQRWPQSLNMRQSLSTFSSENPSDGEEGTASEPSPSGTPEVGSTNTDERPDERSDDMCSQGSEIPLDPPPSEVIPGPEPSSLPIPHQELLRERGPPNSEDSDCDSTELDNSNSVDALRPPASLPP
Description: DLK Kd Determinations (KINOMEscan KdELECT, DiscoveRx). Also on record: full length of human DLK (amino acids 1-859); host or cells: transiently transfected HEK293 cells; unpurified extract. The following applies: fusion protein of full length human DLK (amino acids 1-859) and NFkB DNA binding domain; qPCR readout; duplicate. As to the method: The DLK dissociation constants (Kd) have been determined in the KINOMEscan KdELECT Service at DiscoveRx.
A fusion protein of full length of human DLK (amino acids 1-859) and the DNA binding domain of NFkB was expressed in transiently transfected HEK293 cells. From these HEK 293 cells, extracts were prepared in M-PER extraction buffer (Pierce) in the presence of Protease Inhibitor Cocktail Complete (Roche) and Phosphatase Inhibitor Cocktail Set II (Merck) per manufacturers' instructions. The DLK fusion protein was labeled with a chimeric double-stranded DNA tag containing the NFkB binding site (5′-GGGAATTCCC-3′) fused to an amplicon for qPCR readout, which was added directly to the expression extract (the final concentration of DNA-tag in the binding reaction is 0.1 nM).
Streptavidin-coated magnetic beads (Dynal M280) were treated with a biotinylated small molecule ligand for 30 minutes at room temperature to generate affinity resins the binding assays. The liganded beads were blocked with excess biotin and washed with blocking buffer (SeaBlock (Pierce), 1% BSA, 0.05% Tween 20, 1 mM DTT) to remove unbound ligand and to reduce nonspecific binding.
Extracts were used directly in binding assays without any enzyme purification steps at a ≧10,000-fold overall stock dilution (final DNA-tagged enzyme concentration <0.1 nM). Extracts were loaded with DNA-tag and diluted into the binding reaction in a two step process. First extracts were diluted 1:100 in 1× binding buffer (PBS/0.05% Tween 20/10 mM DTT/0.1% BSA/2 μg/ml sonicated salmon sperm DNA) containing 10 nM DNA-tag. This dilution was allowed to equilibrate at room temperature for 15 minutes and then subsequently diluted 1:100 in 1× binding buffer. Test compounds were prepared as 111× stocks in 100% DMSO. Kds were determined using an 11-point 3-fold compound dilution series with three DMSO control points. All compounds for Kd measurements are distributed by acoustic transfer (non-contact dispensing) in 100% DMSO. The compounds were then diluted directly into the assays such that the final concentration of DMSO was 0.9%. All reactions performed in polypropylene 384-well plates. Each was a final volume of 0.02 mL. Assays were incubated with shaking for 1 hour at room temperature. Then the beads were pelleted and washed with wash buffer (1×PBS, 0.05% Tween 20) to remove displaced kinase and test compound. The washed based were re-suspended in elution buffer (1×PBS, 0.05% Tween 20, 0.5 μM non-biotinylated affinity ligand) and incubated at room temperature with shaking for 30 minutes. The kinase concentration in the eluates was measured by qPCR. qPCR reactions were assembled by adding 2.5 μL of kinase eluate to 7.5 μL of qPCR master mix containing 0.15 μM amplicon primers and 0.15 μM amplicon probe. The qPCR protocol consisted of a 10 minute hot start at 95° C., followed by 35 cycles of 95° C. for 15 seconds, 60° C. for 1 minute.
Test compounds were prepared as 111× stocks in 100% DMSO. Kds were determined using an 11-point 3-fold compound dilution series with three DMSO control points. All compounds for Kd measurements are distributed by acoustic transfer (non-contact dispensing) in 100% DMSO. The compounds were then diluted directly into the assays such that the final concentration of DMSO was 0.9%. The Kds were determined using a compound top concentration of 30,000 nM. Kd measurements were performed in duplicate.
Binding constants (Kds) were calculated with a standard dose-response curve using the Hill equation: […]
The Hill Slope was set to −1. Curves were fitted using a non-linear least square fit with the Levenberg-Marquardt algorithm (Levenberg, K., A method for the solution of certain non-linear problems in least squares, Q. Appl. Math. 2, 164-168 (1944)). See also Fabian, M. A. et al. A small molecule-kinase interaction map for clinical kinase inhibitors. Nat. Biotechnol. […]
For the molecule `CC(C)c1nc(-c2cnc(N)c(C(F)(F)F)c2)cn1[C@H]1C[C@@H](F)C1` [Example 24, 5-(1-((1s,3s)-3-fluorocyclobutyl)-2-isopropyl-1H-imidazol-4-yl)-3-(trifluoromethyl)pyridin-2-amine], the Kd – broadly, a measure of binding affinity in units of concentration – amounted to 240 nM.
For `Nc1ncc(-c2cn([C@H]3[C@@H]4CNC[C@@H]43)c(CC3CC3)n2)cc1C(F)(F)F` [Example 59, 5-(1-((1R,5S,6s)-3-azabicyclo[3.1.0]hexan-6-yl)-2-(cyclopropylmethyl)-1H-imidazol-4-yl)-3-(trifluoromethyl)pyridin-2-amine] the value was 50 nM; for `CC(C)c1nc(-c2cnc(N)c(C(F)(F)F)c2)cn1C1CC(N2CCOCC2)C1` (stereo not drawn) [Example 37, 5-(2-isopropyl-1-(3-morpholinocyclobutyl)-1H-imidazol-4-yl)-3-(trifluoromethyl)pyridin-2-amine], 92 nM; for `Nc1ncc(-c2cn([C@H]3[C@@H]4CNC[C@@H]43)c(C3CC3)n2)cc1C(F)(F)F` [Example 71, 5-(1-((1R,5S,6s)-3-azabicyclo[3.1.0]hexan-6-yl)-2-cyclopropyl-1H-imidazol-4-yl)-3-(trifluoromethyl)pyridin-2-amine], 87 nM.
Regarding `Nc1ncc(-c2cn([C@H]3[C@@H]4CN(CC(F)F)C[C@@H]43)c(C3CC3)n2)cc1OC(F)(F)F` [Example 67, 5-(2-cyclopropyl-1-((1R,5S,6s)-3-(2,2-difluoroethyl)-3-azabicyclo[3.1.0]hexan-6-yl)-1H-imidazol-4-yl)-3-(trifluoromethoxy)pyridin-2-amine], the Kd turned out to be 130 nM.
The same measure for `CC(C)c1nc(-c2cnc(N)c(C(F)(F)F)c2)cn1[C@H]1[C@@H]2CN(CC(F)(F)F)C[C@@H]21` [Example 18, 5-(2-isopropyl-1-((1R,5S,6s)-3-(2,2,2-trifluoroethyl)-3-azabicyclo[3.1.0]hexan-6-yl)-1H-imidazol-4-yl)-3-(trifluoromethyl)pyridin-2-amine]: 720 nM; for `Nc1ncc(-c2cn([C@H]3[C@@H]4CN(C5COC5)C[C@@H]43)c(C3CC3)n2)cc1OC(F)F` [Example 104, 5-(2-cyclopropyl-1-((1R,5S,6s)-3-(oxetan-3-yl)-3-azabicyclo[3.1.0]hexan-6-yl)-1H-imidazol-4-yl)-3-(difluoromethoxy)pyridin-2-amine]: 66 nM; for `Nc1ncc(-c2cn([C@H]3[C@@H]4CN(C5COC5)C[C@@H]43)c(C3CCCC3)n2)cc1OC(F)(F)F` [Example 63, 5-(2-cyclopentyl-1-((1R,5S,6s)-3-(oxetan-3-yl)-3-azabicyclo[3.1.0]hexan-6-yl)-1H-imidazol-4-yl)-3-(trifluoromethoxy)pyridin-2-amine]: 140 nM.
Regarding `Nc1ncc(-c2cn3c(n2)C(C2CC2)OCC3)cc1C(F)(F)F` (stereo not drawn) [Example 49, 5-(8-cyclopropyl-5,6-dihydro-8H-imidazo[2,1-c][1,4]oxazin-2-yl)-3-(trifluoromethyl)pyridin-2-amine], binding was characterised by a dissociation constant (Kd) of 1200 nM.
The same measure for `CC(C)c1nc(-c2cnc(N)c(OC(F)(F)F)c2)cn1[C@H]1[C@@H]2CN(CC(F)F)C[C@@H]21` [Example 109, 5-(1-((1R,5S,6s)-3-(2,2-difluoroethyl)-3-azabicyclo[3.1.0]hexan-6-yl)-2-isopropyl-1H-imidazol-4-yl)-3-(trifluoromethoxy)pyridin-2-amine]: 66 nM.
For `Nc1ncc(-c2cn([C@H]3[C@@H]4CN(CCF)C[C@@H]43)c(CC(F)(F)F)n2)cc1C(F)(F)F` [Example 123, 5-(1-((1R,5S,6s)-3-(2-fluoroethyl)-3-azabicyclo[3.1.0]hexan-6-yl)-2-(2,2,2-trifluoroethyl)-1H-imidazol-4-yl)-3-(trifluoromethyl)pyridin-2-amine] the value was 65 nM; for `CC(C)n1cc(-c2cnc(N)c(C(F)(F)F)c2)nc1C1CC1` [Example 8, 5-[2-cyclopropyl-1-(propan-2-yl)-1H-imidazol-4-yl]-3-(trifluoromethyl)pyridin-2-amine], 130 nM.
For `Nc1ncc(-c2cn([C@H]3[C@@H]4CN(CC(F)F)C[C@@H]43)c(CC3CC3)n2)cc1OC(F)F` [Example 89, 5-(2-(cyclopropylmethyl)-1-((1R,5S,6s)-3-(2,2-difluoroethyl)-3-azabicyclo[3.1.0]hexan-6-yl)-1H-imidazol-4-yl)-3-(difluoromethoxy)pyridin-2-amine] the value was 290 nM; for `CC(=O)N1C[C@@H]2[C@H](C1)[C@H]2n1cc(-c2cnc(N)c(OC(F)(F)F)c2)nc1CC1CC1` [Example 91, 1-((1R,5S,6s)-6-(4-(6-amino-5-(trifluoromethoxy)pyridin-3-yl)-2-(cyclopropylmethyl)-1H-imidazol-1-yl)-3-azabicyclo[3.1.0]hexan-3-yl)ethan-1-one], 77 nM; for `Nc1ncc(-c2cn(CC3CC3)c([C@H]3[C@@H]4CN(C5COC5)C[C@@H]43)n2)cc1C(F)(F)F` [Example 1, 5-(1-(cyclopropylmethyl)-2-((1R,5S,6r)-3-(oxetan-3-yl)-3-azabicyclo[3.1.0]hexan-6-yl)-1H-imidazol-4-yl)-3-(trifluoromethyl)pyridin-2-amine], 140 nM.
Regarding `CC(C)c1nc(-c2cnc(N)c(OC(F)F)c2)cn1[C@H]1[C@@H]2CN(C3CCOCC3)C[C@@H]21` [Example 60, 3-(difluoromethoxy)-5-(2-isopropyl-1-((1R,5S,6s)-3-(tetrahydro-2H-pyran-4-yl)-3-azabicyclo[3.1.0]hexan-6-yl)-1H-imidazol-4-yl)pyridin-2-amine], the Kd was found to be 180 nM.
The same measure for `Nc1ncc(-c2cn([C@H]3[C@@H]4CN(C5COC5)C[C@@H]43)c(C3CCC3)n2)cc1OC(F)(F)F` [Example 56, 5-(2-cyclobutyl-1-((1R,5S,6s)-3-(oxetan-3-yl)-3-azabicyclo[3.1.0]hexan-6-yl)-1H-imidazol-4-yl)-3-(trifluoromethoxy)pyridin-2-amine]: 280 nM.
The same measure for `Nc1ncc(-c2cn([C@H]3[C@@H]4CNC[C@@H]43)c(CC(F)(F)F)n2)cc1C(F)(F)F` [Example 120, 5-(1-((1R,5S,6s)-3-azabicyclo[3.1.0]hexan-6-yl)-2-(2,2,2-trifluoroethyl)-1H-imidazol-4-yl)-3-(trifluoromethyl)pyridin-2-amine]: 40 nM.
